Holding throughout (experiment): isothermal titration calorimetry
Common to all, as to format: binding
On the technique in general: ITC needs no label: the signal is the heat of the interaction.

For test [1], the target named is T1, TmoX1062 (Candidatus Pelagibacter communis, UniProt Q4FL33).
T1 construct: gene tmoX
T1 sequence (Q4FL33 25-314): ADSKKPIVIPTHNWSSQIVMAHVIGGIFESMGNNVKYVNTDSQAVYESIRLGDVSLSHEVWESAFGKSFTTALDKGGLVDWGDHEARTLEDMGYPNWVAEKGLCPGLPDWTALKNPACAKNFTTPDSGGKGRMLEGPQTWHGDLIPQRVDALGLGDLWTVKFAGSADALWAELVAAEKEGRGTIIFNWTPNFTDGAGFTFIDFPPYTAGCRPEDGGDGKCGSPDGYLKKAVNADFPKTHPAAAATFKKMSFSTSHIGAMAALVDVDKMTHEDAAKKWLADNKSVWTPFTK
The source says: isothermal titration calorimetry on TmoX1062

The target in test [2] is T2, TmoX1062 (Candidatus Pelagibacter communis, UniProt Q4FL33, E114A).
T2 construct: gene tmoX
The settings on record: 10 mM Tris-HCl pH 8.0, 100 mM NaCl.

Test [3] addresses T3, TmoX1062 (Candidatus Pelagibacter communis, UniProt Q4FL33, F89A).
T3 construct: gene tmoX
The settings on record: 10 mM Tris-HCl pH 8.0, 100 mM NaCl.

The target in test [4] is T4, TmoX1062 (Candidatus Pelagibacter communis, UniProt Q4FL33, W212A).
T4 construct: gene tmoX
The settings on record: 10 mM Tris-HCl pH 8.0, 100 mM NaCl.

Test [5] deals with T5, TmoX1062 (Candidatus Pelagibacter communis, UniProt Q4FL33, W85A).
T5 construct: gene tmoX
The settings on record: 10 mM Tris-HCl pH 8.0, 100 mM NaCl.

The target of test [6] is T6, TmoX1062 (Candidatus Pelagibacter communis, UniProt Q4FL33, F210A).
T6 construct: gene tmoX
The settings on record: 10 mM Tris-HCl pH 8.0, 100 mM NaCl.

Test [7] concerns the target T7, TmoX1062 (Candidatus Pelagibacter communis, UniProt Q4FL33, W38A).
T7 construct: gene tmoX
As to conditions: 10 mM Tris-HCl pH 8.0, 100 mM NaCl.

T4 sequence (Q4FL33 25-314 W212A): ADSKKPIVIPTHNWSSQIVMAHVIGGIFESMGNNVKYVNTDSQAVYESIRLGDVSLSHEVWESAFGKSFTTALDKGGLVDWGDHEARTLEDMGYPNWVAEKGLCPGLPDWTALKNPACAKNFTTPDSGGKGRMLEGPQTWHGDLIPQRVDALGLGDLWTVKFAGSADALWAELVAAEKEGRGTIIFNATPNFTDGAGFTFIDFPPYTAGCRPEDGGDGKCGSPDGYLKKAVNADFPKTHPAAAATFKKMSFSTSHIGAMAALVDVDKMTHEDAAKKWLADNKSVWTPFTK
T2 sequence (Q4FL33 25-314 E114A): as the sequence (Q4FL33 25-314 W212A) above, with E90A, A188W counted along it
T7 sequence (Q4FL33 25-314 W38A): as the sequence (Q4FL33 25-314 W212A) above, with W14A, A188W counted along it
T3 sequence (Q4FL33 25-314 F89A): as the sequence (Q4FL33 25-314 W212A) above, with F65A, A188W counted along it
T5 sequence (Q4FL33 25-314 W85A): as the sequence (Q4FL33 25-314 W212A) above, with W61A, A188W counted along it
T6 sequence (Q4FL33 25-314 F210A): as the sequence (Q4FL33 25-314 W212A) above, with F186A, A188W counted along it

`C[N+](C)(C)CCO` [Choline] yielded a Kd at TmoX1062 [1] of 2.5 ± 0.33 µM.

For `C[N+](C)(C)[O-]` [TMAO], the “binding affinity relative to WT (100%)” value at TmoX1062 [2] is “Mutation of Glu114 to alanine abolished the binding affinity of TmoX1062 toward TMAO”; at TmoX1062 [3], “Mutations of Trp85, Phe89 and Trp212 to alanine severely deceased the binding affinity of TmoX1062”; at TmoX1062 [4], “Mutations of Trp85, Phe89 and Trp212 to alanine severely deceased the binding affinity of TmoX1062”; on TmoX1062 [5], “Mutations of Trp85, Phe89 and Trp212 to alanine severely deceased the binding affinity of TmoX1062”; on TmoX1062 [6] it was “mutants W38A and F210A still maintained a relatively high TMAO binding affinity”; on TmoX1062 [7], “mutants W38A and F210A still maintained a relatively high TMAO binding affinity”. The Kd at TmoX1062 [1] worked out at 0.52 ± 0.12 µM.

The Kd is the concentration at which binding is half-saturated. The low end stands for tighter binding, the high end for weaker binding.

These data come from article PMC8918994, “Characterization of the Trimethylamine N-Oxide Transporter From Pelagibacter Strain HTCC1062 Reveals Its Oligotrophic Niche Adaption” (Frontiers in Microbiology, 2022).
